Where a name gives a salt, the structure may show the parent alone.
Test system: umbilical cord MSCs (P3-P5 cells)
Assay: agglomeration of cultured MSCs after adding ligustrazine hydrochloride and/or Shenmai injection (cell graphs)
Type: cell-based, human
Conditions: Day 1 after addition, ligustrazine hydrochloride 40-80 mg/L, Shenmai injection 0.5% by volume, FIG. 1 to FIG. 9
Procedure: 2.9 A ligustrazine hydrochloride (GYZZ H20041175 injection of Harbin Medisan Pharmaceutical Co., Ltd., which follows the Second Supplement to the National Standard and can be directly injected into human bodies) and a Shenmai injection (GYZZ Z63021721 of Yunnan Phytopharmaceutical Co., Ltd., which follows the National Drug Standard (Amendment) WS3-B-3428-98-2010 and can be directly injected into human bodies) were added to P3-P5 cells respectively. The concentration of the ligustrazine hydrochloride was 40-80 mg/L and the Shenmai injection was 0.5% by volume. After culture for 24 hours, change the medium and culture for another one week, the cells grown to a fusion degree of 80-90% were collected and digested for tests. The products obtained in the steps are biodetected to eliminate etiological contamination.
The cells were divided into three groups: a. only the Shenmai injection was added; b. only the ligustrazine hydrochloride was added; and c. both the Shenmai injection and the ligustrazine hydrochloride were added for comparison.

Cc1nc(C)c(C)nc1C [ligustrazine hydrochloride]
agglomeration of the cells: improved to some extent
